# According to publication PMC11005723, “Development of Complementary Photo‐arginine/lysine to Promote Discovery of Arg/Lys hPTMs Interactomes” (Advanced Science, 2024):
# Non-standard residues stand in square brackets, D forms with d. No end group written: not given here. *: point of attachment. Biotin = O=C1N[C@H]2[C@H](CS[C@H]2CCCCC(=O)*)N1; R(dz) = photo-arginine
# Tested on: HEK293T nuclear lysates
# Test: SILAC‐based pull‐down proteomics H4K5acK8ac/H4K5 (probes 8/5)
# Format: binding, human
# Conditions: for B6 log2 (H4K5ac8ac/H4K5): replicate B6; for A6 log2 (H4K5ac8ac/H4K5): replicate A6
# [1] = protein YWHAB, Bos taurus (CON_00829553.1)
substance,measurement,setting,value
probe 8: H4K5acK8ac peptide probe with photo‐arginine R(dz) and K(biotin) (SG[R(dz)]GK(Ac)GGK(Ac)GLGKGGK(Biotin)),B6 log2 (H4K5ac8ac/H4K5),protein MYH9 (P35579),-0.04782
same,A6 log2 (H4K5ac8ac/H4K5),protein NAA10 (P41227),-0.3046
same,B6 log2 (H4K5ac8ac/H4K5),protein NAA10 (P41227),0.05206
same,A6 log2 (H4K5ac8ac/H4K5),protein NACC1 (Q96RE7),0.2811
same,B6 log2 (H4K5ac8ac/H4K5),protein NACC1 (Q96RE7),0.03418
same,A6 log2 (H4K5ac8ac/H4K5),protein NFXL1 (Q6ZNB6),0.2111
same,B6 log2 (H4K5ac8ac/H4K5),protein NFXL1 (Q6ZNB6),0.02469
same,A6 log2 (H4K5ac8ac/H4K5),protein NOL9 (Q5SY16),-0.2567
same,B6 log2 (H4K5ac8ac/H4K5),protein NOL9 (Q5SY16),-0.02031
same,A6 log2 (H4K5ac8ac/H4K5),protein PA2G4 (Q9UQ80),0.1563
same,B6 log2 (H4K5ac8ac/H4K5),protein PA2G4 (Q9UQ80),0.03904
same,A6 log2 (H4K5ac8ac/H4K5),protein PACSIN2 (Q9UNF0),0
same,B6 log2 (H4K5ac8ac/H4K5),protein PACSIN2 (Q9UNF0),-0.04928
same,A6 log2 (H4K5ac8ac/H4K5),protein PBX1 (A0A087X0P4),0.6964
same,B6 log2 (H4K5ac8ac/H4K5),protein PBX1 (A0A087X0P4),0.06283
same,A6 log2 (H4K5ac8ac/H4K5),protein POLR1A (B9ZVN9),0.06415
same,B6 log2 (H4K5ac8ac/H4K5),protein POLR1A (B9ZVN9),-0.04145
same,A6 log2 (H4K5ac8ac/H4K5),protein PPA1 (Q15181),0.1577
same,B6 log2 (H4K5ac8ac/H4K5),protein PPA1 (Q15181),0.07333
same,A6 log2 (H4K5ac8ac/H4K5),protein PPP1CB (P62140),-0.299
same,B6 log2 (H4K5ac8ac/H4K5),protein PPP1CB (P62140),-0.01665
same,A6 log2 (H4K5ac8ac/H4K5),protein PPWD1 (F5H7P7),-0.2794
same,B6 log2 (H4K5ac8ac/H4K5),protein PPWD1 (F5H7P7),-0.02682
same,A6 log2 (H4K5ac8ac/H4K5),protein PRPF4 (O43172),-0.3068
same,B6 log2 (H4K5ac8ac/H4K5),protein PRPF4 (O43172),-0.007391
same,A6 log2 (H4K5ac8ac/H4K5),protein PRPF19 (Q9UMS4),-0.3378
same,B6 log2 (H4K5ac8ac/H4K5),protein PRPF19 (Q9UMS4),0.03114
same,A6 log2 (H4K5ac8ac/H4K5),protein RAB18 (Q9NP72),-0.7664
same,B6 log2 (H4K5ac8ac/H4K5),protein RAB18 (Q9NP72),0.06785
same,A6 log2 (H4K5ac8ac/H4K5),protein RBBP4 (Q09028),-0.301
same,B6 log2 (H4K5ac8ac/H4K5),protein RBBP4 (Q09028),-0.04139
same,A6 log2 (H4K5ac8ac/H4K5),protein RBBP5 (Q15291),0.327
same,B6 log2 (H4K5ac8ac/H4K5),protein RBBP5 (Q15291),0.03881
same,A6 log2 (H4K5ac8ac/H4K5),protein RBM17 (Q5W011),-0.1033
same,B6 log2 (H4K5ac8ac/H4K5),protein RBM17 (Q5W011),-0.0008232
same,A6 log2 (H4K5ac8ac/H4K5),protein RFC4 (C9JTT7),-0.05533
same,B6 log2 (H4K5ac8ac/H4K5),protein RFC4 (C9JTT7),0.05642
same,A6 log2 (H4K5ac8ac/H4K5),protein RIF1 (Q5UIP0),0.1175
same,B6 log2 (H4K5ac8ac/H4K5),protein RIF1 (Q5UIP0),0.06957
same,A6 log2 (H4K5ac8ac/H4K5),protein RLTPR (Q6F5E8),0.7852
same,B6 log2 (H4K5ac8ac/H4K5),protein RLTPR (Q6F5E8),0.007574
same,A6 log2 (H4K5ac8ac/H4K5),protein RNF113A (O15541),-0.4653
same,B6 log2 (H4K5ac8ac/H4K5),protein RNF113A (O15541),0.03846
same,A6 log2 (H4K5ac8ac/H4K5),protein RPL18A (M0R3D6),-0.4315
same,B6 log2 (H4K5ac8ac/H4K5),protein RPL18A (M0R3D6),-0.04492
same,A6 log2 (H4K5ac8ac/H4K5),protein RPL23 (P62829),-0.1756
same,B6 log2 (H4K5ac8ac/H4K5),protein RPL23 (P62829),0.05216
same,A6 log2 (H4K5ac8ac/H4K5),protein SART1 (O43290),-0.3683
same,B6 log2 (H4K5ac8ac/H4K5),protein SART1 (O43290),0.001654
same,A6 log2 (H4K5ac8ac/H4K5),protein SEPT9 (Q9UHD8),0.1535
same,B6 log2 (H4K5ac8ac/H4K5),protein SEPT9 (Q9UHD8),-0.026
same,A6 log2 (H4K5ac8ac/H4K5),protein SKP1 (E5RJR5),-0.01806
same,B6 log2 (H4K5ac8ac/H4K5),protein SKP1 (E5RJR5),0.0159
same,A6 log2 (H4K5ac8ac/H4K5),protein SMARCC1 (Q92922),-0.08326
same,B6 log2 (H4K5ac8ac/H4K5),protein SMARCC1 (Q92922),0.04543
same,A6 log2 (H4K5ac8ac/H4K5),protein SMC4 (E9PD53),-0.08362
same,B6 log2 (H4K5ac8ac/H4K5),protein SMC4 (E9PD53),0.02245
same,A6 log2 (H4K5ac8ac/H4K5),protein SRP9 (P49458),-0.01043
same,B6 log2 (H4K5ac8ac/H4K5),protein SRP9 (P49458),0.03654
same,A6 log2 (H4K5ac8ac/H4K5),protein SRPRB (H7C4H2),0.3686
same,B6 log2 (H4K5ac8ac/H4K5),protein SRPRB (H7C4H2),0.07795
same,A6 log2 (H4K5ac8ac/H4K5),protein STRAP (Q9Y3F4),0.01226
same,B6 log2 (H4K5ac8ac/H4K5),protein STRAP (Q9Y3F4),0.01225
same,A6 log2 (H4K5ac8ac/H4K5),protein STUB1 (Q9UNE7),0.5197
same,B6 log2 (H4K5ac8ac/H4K5),protein STUB1 (Q9UNE7),0.03834
same,A6 log2 (H4K5ac8ac/H4K5),protein SUGP2 (M0R3F6),-0.3599
same,B6 log2 (H4K5ac8ac/H4K5),protein SUGP2 (M0R3F6),0.02065
same,A6 log2 (H4K5ac8ac/H4K5),protein SYMPK (Q92797),-0.08997
same,B6 log2 (H4K5ac8ac/H4K5),protein SYMPK (Q92797),-0.0308
same,A6 log2 (H4K5ac8ac/H4K5),protein TBC1D4 (O60343),0.1383
same,B6 log2 (H4K5ac8ac/H4K5),protein TBC1D4 (O60343),-0.03399
same,A6 log2 (H4K5ac8ac/H4K5),protein TBL3 (Q12788),-0.1597
same,B6 log2 (H4K5ac8ac/H4K5),protein TBL3 (Q12788),-0.02533
same,A6 log2 (H4K5ac8ac/H4K5),protein TKT (P29401),-0.1341
same,B6 log2 (H4K5ac8ac/H4K5),protein TKT (P29401),0.0497
same,A6 log2 (H4K5ac8ac/H4K5),protein TMPO (P42167),0.4117
same,B6 log2 (H4K5ac8ac/H4K5),protein TMPO (P42167),0.03759
same,A6 log2 (H4K5ac8ac/H4K5),protein TTLL12 (Q14166),0.2441
same,B6 log2 (H4K5ac8ac/H4K5),protein TTLL12 (Q14166),0.0292
same,A6 log2 (H4K5ac8ac/H4K5),protein TXLNG (Q9NUQ3),0.4545
same,B6 log2 (H4K5ac8ac/H4K5),protein TXLNG (Q9NUQ3),-0.0116
same,A6 log2 (H4K5ac8ac/H4K5),protein UHRF1 (Q96T88),-0.6652
same,B6 log2 (H4K5ac8ac/H4K5),protein UHRF1 (Q96T88),0.04746
same,A6 log2 (H4K5ac8ac/H4K5),protein UHRF2 (Q96PU4),-0.006334
same,B6 log2 (H4K5ac8ac/H4K5),protein UHRF2 (Q96PU4),0.0767
same,A6 log2 (H4K5ac8ac/H4K5),protein UPF1 (Q92900),-0.46
same,B6 log2 (H4K5ac8ac/H4K5),protein UPF1 (Q92900),-0.01045
same,A6 log2 (H4K5ac8ac/H4K5),protein VAPB (O95292),-0.312
same,B6 log2 (H4K5ac8ac/H4K5),protein VAPB (O95292),0.06269
same,A6 log2 (H4K5ac8ac/H4K5),protein WAPAL (Q7Z5K2),0.1532
same,B6 log2 (H4K5ac8ac/H4K5),protein WAPAL (Q7Z5K2),-0.009146
same,A6 log2 (H4K5ac8ac/H4K5),protein XRCC5 (P13010),-0.05414
same,B6 log2 (H4K5ac8ac/H4K5),protein XRCC5 (P13010),-0.03221
same,A6 log2 (H4K5ac8ac/H4K5),[1],-0.1065
same,B6 log2 (H4K5ac8ac/H4K5),[1],0.02961
same,A6 log2 (H4K5ac8ac/H4K5),protein ZNF330 (Q9Y3S2),0.1967
same,B6 log2 (H4K5ac8ac/H4K5),protein ZNF330 (Q9Y3S2),-0.03674
same,A6 log2 (H4K5ac8ac/H4K5),protein ZNF579 (Q8NAF0),-0.0908
same,B6 log2 (H4K5ac8ac/H4K5),protein ZNF579 (Q8NAF0),0.0364
same,A6 log2 (H4K5ac8ac/H4K5),protein ZZZ3 (Q8IYH5),-0.06959
same,B6 log2 (H4K5ac8ac/H4K5),protein ZZZ3 (Q8IYH5),-0.004188
